# Data published in patent publication US8765669B2, “Glycosylated GLP-1 peptide” (Glytech, Inc., priority 2008, dated 2014).
# No end group written: not given here.
# Target: T1, DPP-IV (dipeptidyl peptidase IV from porcine kidney) (Sus scrofa, UniProt P22411)
# T1 construct: dipeptidyl peptidase IV from porcine kidney, product of SIGMA; purchased SIGMA; host or cells: porcine kidney (tissue-derived enzyme)
# Assay: Test of resistance to dipeptidyl peptidase IV (DPP-IV)
# Type: in vitro ADME
# Details: half-life (t1/2) in DPP-IV solution at 37° C., GLP-1 of Comparative Example 1 defined as standard (=1)
# Method: Each solution mixture was adjusted with 100 mM sodium phosphate buffer to 100 μl in total and allowed to react at 37° C. A 10 μaliquot of the reaction solution was mixed with 15 μl of 10% trifluoroacetic acid prepared in advance in another Eppendorf tube.
# T1 sequence (P22411 whole entry): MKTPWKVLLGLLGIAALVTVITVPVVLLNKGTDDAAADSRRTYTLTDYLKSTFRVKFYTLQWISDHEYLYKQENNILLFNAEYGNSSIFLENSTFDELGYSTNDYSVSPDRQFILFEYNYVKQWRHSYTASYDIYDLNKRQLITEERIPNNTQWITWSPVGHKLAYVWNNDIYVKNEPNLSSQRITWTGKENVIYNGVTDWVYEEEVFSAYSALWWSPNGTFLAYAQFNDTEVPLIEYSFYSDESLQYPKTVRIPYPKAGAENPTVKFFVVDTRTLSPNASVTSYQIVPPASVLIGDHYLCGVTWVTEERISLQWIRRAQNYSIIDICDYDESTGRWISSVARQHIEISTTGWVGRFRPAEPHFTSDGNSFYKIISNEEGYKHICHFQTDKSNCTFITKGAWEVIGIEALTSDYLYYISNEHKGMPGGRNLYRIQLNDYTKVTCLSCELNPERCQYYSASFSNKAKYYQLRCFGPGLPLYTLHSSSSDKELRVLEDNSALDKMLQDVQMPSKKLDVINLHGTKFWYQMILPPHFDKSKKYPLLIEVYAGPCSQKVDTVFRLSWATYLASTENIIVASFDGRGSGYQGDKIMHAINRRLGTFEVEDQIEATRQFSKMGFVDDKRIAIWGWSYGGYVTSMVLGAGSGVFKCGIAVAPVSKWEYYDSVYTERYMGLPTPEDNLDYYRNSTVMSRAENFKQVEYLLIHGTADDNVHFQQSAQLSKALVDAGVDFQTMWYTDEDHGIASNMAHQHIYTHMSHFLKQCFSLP
row,Compound,Relative Resistance
1,"CC[C@H](C)[C@H](NC(=O)[C@H](Cc1ccccc1)NC(=O)[C@H](CCC(=O)O)NC(=O)[C@H](CCCCN)NC(=O)[C@H](C)NC(=O)[C@H](C)NC(=O)[C@H](CCC(N)=O)NC(=O)[C@H](CSCC(=O)N[C@@H]1O[C@H](CO)[C@@H](O[C@@H]2O[C@H](CO)[C@@H](O[C@@H]3O[C@H](CO[C@H]4O[C@H](CO)[C@@H](O)[C@H](O)[C@@H]4O[C@@H]4O[C@H](CO)[C@@H](O[C@@H]5O[C@H](CO[C@]6(C(=O)O)C[C@H](O)[C@@H](NC(C)=O)[C@H]([C@H](O)[C@H](O)CO)O6)[C@H](O)[C@H](O)[C@H]5O)[C@H](O)[C@H]4NC(C)=O)[C@@H](O)[C@H](O[C@H]4O[C@H](CO)[C@@H](O)[C@H](O)[C@@H]4O[C@@H]4O[C@H](CO)[C@@H](O[C@@H]5O[C@H](CO[C@]6(C(=O)O)C[C@H](O)[C@@H](NC(C)=O)[C@H]([C@H](O)[C@H](O)CO)O6)[C@H](O)[C@H](O)[C@H]5O)[C@H](O)[C@H]4NC(C)=O)[C@@H]3O)[C@H](O)[C@H]2NC(C)=O)[C@H](O)[C@H]1NC(C)=O)NC(=O)[C@H](CCC(=O)O)NC(=O)[C@H](CC(C)C)NC(=O)[C@H](Cc1ccc(O)cc1)NC(=O)[C@H](CO)NC(=O)[C@H](CO)NC(=O)[C@@H](NC(=O)[C@H](CC(=O)O)NC(=O)[C@H](CO)NC(=O)[C@@H](NC(=O)[C@H](Cc1ccccc1)NC(=O)[C@@H](NC(=O)CNC(=O)[C@H](CCC(=O)O)NC(=O)[C@H](C)NC(=O)[C@@H](N)Cc1c[nH]cn1)[C@@H](C)O)[C@@H](C)O)C(C)C)C(=O)N[C@@H](CSCC(=O)N[C@@H]1O[C@H](CO)[C@@H](O[C@@H]2O[C@H](CO)[C@@H](O[C@@H]3O[C@H](CO[C@H]4O[C@H](CO)[C@@H](O)[C@H](O)[C@@H]4O[C@@H]4O[C@H](CO)[C@@H](O[C@@H]5O[C@H](CO[C@]6(C(=O)O)C[C@H](O)[C@@H](NC(C)=O)[C@H]([C@H](O)[C@H](O)CO)O6)[C@H](O)[C@H](O)[C@H]5O)[C@H](O)[C@H]4NC(C)=O)[C@@H](O)[C@H](O[C@H]4O[C@H](CO)[C@@H](O)[C@H](O)[C@@H]4O[C@@H]4O[C@H](CO)[C@@H](O[C@@H]5O[C@H](CO[C@]6(C(=O)O)C[C@H](O)[C@@H](NC(C)=O)[C@H]([C@H](O)[C@H](O)CO)O6)[C@H](O)[C@H](O)[C@H]5O)[C@H](O)[C@H]4NC(C)=O)[C@@H]3O)[C@H](O)[C@H]2NC(C)=O)[C@H](O)[C@H]1NC(C)=O)C(=O)N[C@@H](Cc1c[nH]c2ccccc12)C(=O)N[C@@H](CC(C)C)C(=O)N[C@H](C(=O)N[C@@H](CCCCN)C(=O)NCC(=O)N[C@@H](CCCNC(=N)N)C(=O)NCC(=O)O)C(C)C [Example 3, 22 and 30Cys-disialo oligosaccharide Chain Added GLP-1]",32.5
2,36Cys-hyaluronic acid octasaccharide (HA-8) Added GLP-1 Peptide (HAEGTFTSDVSSYLEGQAAKEFIAWLVKGC(hyaluronic acid octasaccharide)G) [Example 9],3
3,"CC[C@H](C)[C@H](NC(=O)[C@H](Cc1ccccc1)NC(=O)[C@H](CCC(=O)O)NC(=O)[C@H](CCCCN)NC(=O)[C@H](C)NC(=O)[C@H](C)NC(=O)[C@H](CCC(N)=O)NC(=O)CNC(=O)[C@H](CCC(=O)O)NC(=O)[C@H](CC(C)C)NC(=O)[C@H](Cc1ccc(O)cc1)NC(=O)[C@H](CO)NC(=O)[C@H](CO)NC(=O)[C@@H](NC(=O)[C@H](CC(=O)O)NC(=O)[C@H](CO)NC(=O)[C@@H](NC(=O)[C@H](Cc1ccccc1)NC(=O)[C@@H](NC(=O)CNC(=O)[C@H](CCC(=O)O)NC(=O)[C@H](C)NC(=O)[C@@H](N)Cc1c[nH]cn1)[C@@H](C)O)[C@@H](C)O)C(C)C)C(=O)N[C@@H](CSCC(=O)N[C@@H]1O[C@H](CO)[C@@H](O[C@@H]2O[C@H](CO)[C@@H](O[C@@H]3O[C@H](CO[C@H]4O[C@H](CO)[C@@H](O)[C@H](O)[C@@H]4O[C@@H]4O[C@H](CO)[C@@H](O[C@@H]5O[C@H](CO[C@]6(C(=O)O)C[C@H](O)[C@@H](NC(C)=O)[C@H]([C@H](O)[C@H](O)CO)O6)[C@H](O)[C@H](O)[C@H]5O)[C@H](O)[C@H]4NC(C)=O)[C@@H](O)[C@H](O[C@H]4O[C@H](CO)[C@@H](O)[C@H](O)[C@@H]4O[C@@H]4O[C@H](CO)[C@@H](O[C@@H]5O[C@H](CO[C@]6(C(=O)O)C[C@H](O)[C@@H](NC(C)=O)[C@H]([C@H](O)[C@H](O)CO)O6)[C@H](O)[C@H](O)[C@H]5O)[C@H](O)[C@H]4NC(C)=O)[C@@H]3O)[C@H](O)[C@H]2NC(C)=O)[C@H](O)[C@H]1NC(C)=O)C(=O)N[C@@H](Cc1c[nH]c2ccccc12)C(=O)N[C@@H](CC(C)C)C(=O)N[C@H](C(=O)N[C@@H](CCCCN)C(=O)NCC(=O)N[C@@H](CSCC(=O)N[C@@H]1O[C@H](CO)[C@@H](O[C@@H]2O[C@H](CO)[C@@H](O[C@@H]3O[C@H](CO[C@H]4O[C@H](CO)[C@@H](O)[C@H](O)[C@@H]4O[C@@H]4O[C@H](CO)[C@@H](O[C@@H]5O[C@H](CO[C@]6(C(=O)O)C[C@H](O)[C@@H](NC(C)=O)[C@H]([C@H](O)[C@H](O)CO)O6)[C@H](O)[C@H](O)[C@H]5O)[C@H](O)[C@H]4NC(C)=O)[C@@H](O)[C@H](O[C@H]4O[C@H](CO)[C@@H](O)[C@H](O)[C@@H]4O[C@@H]4O[C@H](CO)[C@@H](O[C@@H]5O[C@H](CO[C@]6(C(=O)O)C[C@H](O)[C@@H](NC(C)=O)[C@H]([C@H](O)[C@H](O)CO)O6)[C@H](O)[C@H](O)[C@H]5O)[C@H](O)[C@H]4NC(C)=O)[C@@H]3O)[C@H](O)[C@H]2NC(C)=O)[C@H](O)[C@H]1NC(C)=O)C(=O)NCC(=O)O)C(C)C [Example 5, 30,36Cys-disialo oligosaccharide Chain Added GLP-1 Peptide]",7.5
4,"CC[C@H](C)[C@H](NC(=O)[C@H](Cc1ccccc1)NC(=O)[C@H](CCC(=O)O)NC(=O)[C@H](CCCCN)NC(=O)[C@H](C)NC(=O)[C@H](C)NC(=O)[C@H](CCC(N)=O)NC(=O)CNC(=O)[C@H](CCC(=O)O)NC(=O)[C@H](CC(C)C)NC(=O)[C@H](Cc1ccc(O)cc1)NC(=O)[C@H](CO)NC(=O)[C@H](CO)NC(=O)[C@@H](NC(=O)[C@H](CC(=O)O)NC(=O)[C@H](CO)NC(=O)[C@@H](NC(=O)[C@H](Cc1ccccc1)NC(=O)[C@@H](NC(=O)CNC(=O)[C@H](CCC(=O)O)NC(=O)[C@H](C)NC(=O)[C@@H](N)Cc1c[nH]cn1)[C@@H](C)O)[C@@H](C)O)C(C)C)C(=O)N[C@@H](CSCC(=O)N[C@@H]1O[C@H](CO)[C@@H](O)[C@H](O[C@@H]2O[C@H](C(=O)O)[C@@H](O[C@@H]3O[C@H](CO)[C@@H](O)[C@H](O[C@@H]4O[C@H](C(=O)O)[C@@H](O)[C@H](O)[C@H]4O)[C@H]3NC(C)=O)[C@H](O)[C@H]2O)[C@H]1NC(C)=O)C(=O)N[C@@H](Cc1c[nH]c2ccccc12)C(=O)N[C@@H](CC(C)C)C(=O)N[C@H](C(=O)N[C@@H](CCCCN)C(=O)NCC(=O)N[C@@H](CCCNC(=N)N)C(=O)NCC(=O)O)C(C)C [Example 6, 30Cys-hyaluronic acid tetrasaccharide (HA-4) Added GLP-1 Peptide]",2.1
5,"CC[C@H](C)[C@H](NC(=O)[C@H](Cc1ccccc1)NC(=O)[C@H](CCC(=O)O)NC(=O)[C@H](CCCCN)NC(=O)[C@H](C)NC(=O)[C@H](C)NC(=O)[C@H](CCC(N)=O)NC(=O)CNC(=O)[C@H](CCC(=O)O)NC(=O)[C@H](CC(C)C)NC(=O)[C@H](Cc1ccc(O)cc1)NC(=O)[C@H](CO)NC(=O)[C@H](CO)NC(=O)[C@@H](NC(=O)[C@H](CC(=O)O)NC(=O)[C@H](CO)NC(=O)[C@@H](NC(=O)[C@H](Cc1ccccc1)NC(=O)[C@@H](NC(=O)CNC(=O)[C@H](CCC(=O)O)NC(=O)[C@H](C)NC(=O)[C@@H](N)Cc1c[nH]cn1)[C@@H](C)O)[C@@H](C)O)C(C)C)C(=O)N[C@@H](C)C(=O)N[C@@H](Cc1c[nH]c2ccccc12)C(=O)N[C@@H](CC(C)C)C(=O)N[C@H](C(=O)N[C@@H](CCCCN)C(=O)NCC(=O)N[C@@H](CSCC(=O)N[C@@H]1O[C@H](CO)[C@@H](O)[C@H](O[C@@H]2O[C@H](C(=O)O)[C@@H](O[C@@H]3O[C@H](CO)[C@@H](O)[C@H](O[C@@H]4O[C@H](C(=O)O)[C@@H](O[C@@H]5O[C@H](CO)[C@@H](O)[C@H](O[C@@H]6O[C@H](C(=O)O)[C@@H](O[C@@H]7O[C@H](CO)[C@@H](O)[C@H](O[C@@H]8O[C@H](C(=O)O)[C@@H](O[C@@H]9O[C@H](CO)[C@@H](O)[C@H](O[C@@H]%10O[C@H](C(=O)O)[C@@H](O[C@@H]%11O[C@H](CO)[C@@H](O)[C@H](O[C@@H]%12O[C@H](C(=O)O)[C@@H](O[C@@H]%13O[C@H](CO)[C@@H](O)[C@H](O[C@@H]%14O[C@H](C(=O)O)[C@@H](O[C@@H]%15O[C@H](CO)[C@@H](O)[C@H](O[C@@H]%16O[C@H](C(=O)O)[C@@H](O)[C@H](O)[C@H]%16O)[C@H]%15NC(C)=O)[C@H](O)[C@H]%14O)[C@H]%13NC(C)=O)[C@H](O)[C@H]%12O)[C@H]%11NC(C)=O)[C@H](O)[C@H]%10O)[C@H]9NC(C)=O)[C@H](O)[C@H]8O)[C@H]7NC(C)=O)[C@H](O)[C@H]6O)[C@H]5NC(C)=O)[C@H](O)[C@H]4O)[C@H]3NC(C)=O)[C@H](O)[C@H]2O)[C@H]1NC(C)=O)C(=O)NCC(=O)O)C(C)C [Example 11, 36Cys-hyaluronic acid hexadecasaccharide (HA-16) Added GLP-1 Peptide]",3
